Values quoted from earlier work as cited in patent US9433553B2, “Device and method for prevention and treatment of deep venous thrombosis” (Fred Herz Patents LLC, priority 2001, dated 2016).
Read-outs that look alike come from different tables or passages of the source.

How the values were obtained:
[1] = test system: patients undergoing elective total hip replacement
[2] = test system: patients undergoing knee arthroplasty
[3] = target: thrombin (Homo sapiens, UniProt P00734); settings: synthetic peptides of the thrombin receptor
[4] = test system: patients who underwent elective general surgery
[5] = test system: patients having surgery after hip fracture; settings: aspirin treated group; placebo 46%
[6] = test system: stasis induced thrombosis; settings: rabbit; 100% without
[7] = test system: experimental thrombus in the rabbit jugular vein
[8] = test system: intracerebral hemorrhage
[9] = test system: patients with deep vein thrombosis; settings: for patients who developed pulmonary embolism: APTT 50-70 seconds, acute deep vein thrombosis
[10] = test system: patients undergoing radical prostatectomy
[11] = test system: patients with spinal cord injury; settings: Green (1991)
[12] = total hip replacement, no placebo group
[13] = 349 patients undergoing total hip replacement, dose adjusted
[14] = 665 patients, fixed doses, elective total hip replacement
[15] = 4,498 general surgery patients randomized to LMWH or placebo
[16] = subcutaneous, adjusted to APTT 1.5-2 times pretreatment, 66 patients

Question: For `CC(=O)CC(c1ccccc1)c1c(O)c2ccccc2oc1=O` (stereo not shown) [Warfarin], which “incidence of DVT” value ([1]; Bailey et al (1991), hip replacement patients, low dose warfarin) is on record?
Answer: 26.6%

Question: And the “incidence of proximal vein thrombosis” value [1, 12]?
Answer: 3%

Question: What about the “total incidence of DVT” value [1, 12] of the same molecule?
Answer: 31%

Question: And the “incidence of thigh vein thrombi” value ([2]; knee arthroplasty / total knee replacement, 48 patients)?
Answer: 6%

Question: What about the “overall incidence of DVT” value ([2]; knee arthroplasty / total knee replacement, 48 patients, no placebo group) of the same molecule?
Answer: 33%

Question: What about the “patients having calf thrombi” value ([2]; total knee replacement, 48 patients) of the same molecule?
Answer: 29%

Question: With “38-45: synthetic peptide corresponding to the thrombin receptor cleavage site (residues 38-45) (LDPRSFLL; UniProt P25116 38-45, looked up, fragment) [Peptide 38-45]” as the molecule, how does the “inhibition of the chromogenic substrate activity of thrombin” value [3] read?
Answer: competitive inhibitors

Question: For low molecular weight heparin [LMWH], which “incidence of DVT” value [1, 13] is on record?
Answer: 12.6%

Question: What about the “incidence of DVT” value [1, 14] of the same molecule?
Answer: 19.4%

Question: And the “rate of proximal vein thrombi” value [1, 14]?
Answer: 5.4%

Question: What about the “reduction of incidence of DVT” value ([1]; elective total hip replacement, 56.6% to 15.5%) of the same molecule?
Answer: 74%

Question: And the “incidence of DVT” value ([1]; elective total hip replacement, without LMWH 56.6%)?
Answer: 15.5%

Question: What about the “major bleeding compared to placebo” value ([4]; 4,498 general surgery patients) of the same molecule?
Answer: No difference

Question: What about the “postoperative wound hematomas and transfusion requirements compared to placebo” value ([4]; 4,498 general surgery patients) of the same molecule?
Answer: increase in postoperative wound hematomas and transfusion requirements

Question: And the overall mortality [4, 15]?
Answer: 0.36%

Question: What about the thromboembolic mortality [4, 15] of the same molecule?
Answer: 0.09%

Question: What about the “incidence of DVT” value ([4]; Ockelford et al (1989), 183 patients, LMWH or placebo) of the same molecule?
Answer: 4.2%

Question: What about the “efficacy compared with standard heparin” value ([4]; seven studies in general surgery patients) of the same molecule?
Answer: same efficacy

Question: And the “reduction of incidence of proximal vein thrombi” value ([2]; knee arthroplasty or tibial osteotomy)?
Answer: 100%

Question: And the “reduction of incidence of DVT” value ([2]; knee arthroplasty or tibial osteotomy, every 12 hours)?
Answer: 71%

Question: And the “incidence of DVT” value ([2]; knee arthroplasty or tibial osteotomy, every 12 hours, placebo 65%)?
Answer: 19%

Question: What about the “incidence of proximal vein thrombi” value ([2]; knee arthroplasty or tibial osteotomy, placebo 19%) of the same molecule?
Answer: none

Question: With `CC(=O)Oc1ccccc1C(=O)O` [aspirin] as the molecule, how does the “incidence of DVT” value [5] read?
Answer: 42%

Question: Which “inhibition of the chromogenic substrate activity of thrombin” value [3] does the source give for “38-64: synthetic peptide corresponding to the covalently associated domains (residues 38-64) of the thrombin receptor (LDPRSFLLRNPNDKYEPFWEDEEKNES; UniProt P25116 38-64, looked up, fragment) [Peptide 38-64]” here?
Answer: competitive inhibitors

Question: Which proximal vein thrombi ([1]; Turpie (1991), fixed dose, elective total hip replacement, placebo 20%) does the source give for enoxaparin here?
Answer: 4%

Question: What about the “rate of DVT” value ([1]; Turpie (1991), fixed dose, elective total hip replacement, placebo 42%) of the same molecule?
Answer: 12%

Question: With Ac(D)-Phe-Pro-bro-Arg [DuP 714] as the molecule, how does the incidence of thrombosis [6] read?
Answer: 33%

Question: And the “fibrin accretion on an experimental thrombus” value ([7]; rabbit jugular vein)?
Answer: effectively inhibited

Question: And the systemic anticoagulation ([7]; rabbit jugular vein model)?
Answer: little systemic anticoagulation

Question: For heparin, which “effectiveness of low dose heparin” value [8] is on record?
Answer: ineffective

Question: And the “patients with recurrent venous thromboembolism diagnosed objectively” value ([9]; Prandoni et al (1992), similar study, 85 patients)?
Answer: 14%

Question: And the “patients with improved mean Marder score” value ([9]; adjusted dose intravenous, 49 patients)?
Answer: 61%

Question: And the “major bleeding associated with initial therapy” value ([9]; adjusted dose intravenous, continuous infusion)?
Answer: 5%

Question: And the “incidence of new episodes of venous thromboembolism” value ([9]; adjusted dose intravenous, continuous infusion, initial treatment of proximal vein thrombosis)?
Answer: 6.9%

Question: What about the “patients who developed pulmonary embolism” value ([9]; adjusted subcutaneous, 47 patients) of the same molecule?
Answer: 10.6%

Question: And the “patients who developed pulmonary embolism” value ([9]; continuous intravenous, 49 patients)?
Answer: 10.2%

Question: And the “rate of hemorrhagic complications” value ([9]; subcutaneous and intravenous groups, no difference)?
Answer: 9.8%

Question: What about the patients with improvement [9, 16] of the same molecule?
Answer: 48%

Question: And the “patients with increase in thrombus size” value [9, 16]?
Answer: 18%

Question: And the “protection against postoperative DVT, adjusted versus fixed low dose” value ([1]; 100 patients, hip replacement or fractured neck of femur, p=0.017)?
Answer: Significant improvement

Question: And the “incidence of DVT” value [1, 13]?
Answer: 16%

Question: What about the incidence of DVT [1, 14] of the same molecule?
Answer: 23.2%

Question: What about the “rate of proximal vein thrombi” value [1, 14] of the same molecule?
Answer: 6.5%

Question: What about the “bleeding, adjusted versus fixed dose” value ([1]; Leyvraz et al (1983)) of the same molecule?
Answer: No differences

Question: And the “patients who developed DVT” value ([1]; Leyvraz et al (1983), 38 patients, adjusted dose (APTT 31.5-36 seconds))?
Answer: 13%

Question: And the “patients who developed DVT” value ([1]; Leyvraz et al (1983), 41 patients, fixed dose of 3500 U every eight hours)?
Answer: 39%

Question: And the “incidence of DVT left by low dose heparin treatment” value ([1]; total hip and total knee replacement patients)?
Answer: around 25%

Question: What about the bleeding complications ([10]; mini-dose heparin treated group) of the same molecule?
Answer: unacceptably high

Question: What about the “incidence of pulmonary emboli” value ([10]; mini-dose heparin, 11% without) of the same molecule?
Answer: none

Question: And the “reduction of postoperative death from pulmonary emboli” value ([4]; low dose heparin)?
Answer: 65%

Question: And the subclinical thrombi prevented ([4]; low dose heparin, thrombi found by leg scanning after elective general surgery)?
Answer: approximately 65%

Question: And the patients with bleeding ([11]; adjusted (higher) dose)?
Answer: 24%

Question: And the thromboembolism ([11]; dose adjusted to APTT 1.5 times control, mean 13,200 U every 12 hours)?
Answer: 7%

Question: And the patients with bleeding ([11]; fixed dose group)?
Answer: none

Question: What about the thromboembolism ([11]; fixed dose of 5000 U subcutaneously every 12 hours, 29 patients) of the same molecule?
Answer: 31%
